SMILES strings stand for the structures.

The target in experiment [1] is Prothrombin (Homo sapiens) (UniProt P00734). Conditions: at 2 µM.
Description: Inhibitory activity against human thrombin at 2 uM
Experiment [2] concerns the target Coagulation factor X (Homo sapiens) (UniProt P00742). In words: Inhibitory activity against human FXa at 5 uM; values are per cent of control.
Experiment [3] in a line: Selectivity ratio for human thrombin over bovine trypsin.

Coagulation factor X (Homo sapiens), sequence (P00742 41-179 limits assumed): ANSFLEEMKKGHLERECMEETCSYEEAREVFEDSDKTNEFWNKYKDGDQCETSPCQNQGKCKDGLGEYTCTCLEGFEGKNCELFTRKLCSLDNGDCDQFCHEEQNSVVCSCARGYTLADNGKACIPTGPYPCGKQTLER
Coagulation factor X (Homo sapiens), sequence (P00742 235-488 limits assumed): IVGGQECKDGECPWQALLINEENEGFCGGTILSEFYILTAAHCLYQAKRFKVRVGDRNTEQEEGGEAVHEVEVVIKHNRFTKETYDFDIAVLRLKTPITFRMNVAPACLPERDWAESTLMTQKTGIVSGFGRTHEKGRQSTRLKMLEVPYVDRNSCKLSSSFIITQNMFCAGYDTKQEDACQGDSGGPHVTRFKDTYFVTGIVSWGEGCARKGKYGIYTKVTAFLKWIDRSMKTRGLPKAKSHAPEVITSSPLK

By residual activity is commonly meant the signal under treatment as a percentage of the control signal. On to `O=C(Oc1ccc(Cl)cc1)c1cc2cc(CCl)ccc2oc1=O`, for which the residual activity in experiment [1] was 107%; in experiment [2], 102%.
Consider `O=C(Oc1cccc(C(F)(F)F)c1)c1cc2cc(CCl)ccc2oc1=O`, for which the residual activity in experiment [1] stood at 66%; in experiment [2] it was 134%.
For the compound `O=C(Oc1ccc2ncccc2c1)c1cc2cc(CCl)ccc2oc1=O`, the figures for the residual activity in experiment [1] and in experiment [2] were 98% and 125%, respectively.
The like results for `COc1cccc(OC(=O)c2cc3cc(CCl)ccc3oc2=O)c1` were, in that order, 66% and 108%.
For `O=C(c1cccc(Cl)c1)c1cc2cc(CCl)ccc2oc1=O`, the residual activity came to 100% in experiment [1] and 83% in experiment [2].
In the case of `COc1cc(Cl)cc(OC(=O)c2cc3cc(CCl)ccc3oc2=O)c1`, the values for the residual activity in experiment [1] and in experiment [2] were 103% and 126%, respectively.
In the case of `O=C(Nc1cccc(Cl)c1)c1cc2cc(CCl)ccc2oc1=O`, the residual activity in experiment [1] was found to be 97%; in experiment [2], 89%.
The like results for `O=C(Cc1cccc(Cl)c1)c1cc2cc(CCl)ccc2oc1=O` were, in that order, 77% and 77%.
On to `Cc1ccc(OC(=O)c2cc3cc(CCl)ccc3oc2=O)cc1`, for which the residual activity in experiment [1] came to 111%; in experiment [2], 72%.
On to `O=C(Oc1ccccc1)c1cc2cc(CCl)ccc2oc1=O`, for which the residual activity in experiment [1] was determined as 60%; in experiment [2] it was 59%.
For the compound `O=C(Oc1cccc(F)c1)c1cc2cc(CCl)ccc2oc1=O`, the residual activity came out at 24% in experiment [1] and 61% in experiment [2].
As for `O=C(Oc1ccccc1Cl)c1cc2cc(CCl)ccc2oc1=O`, the residual activity in experiment [1] is 78%; in experiment [2] it was 134%.
Take `Cc1cccc(OC(=O)c2cc3cc(CCl)ccc3oc2=O)c1`: the residual activity in experiment [1] is 35%; in experiment [2] it was 78%.
`O=C(Oc1cccc(Br)c1)c1cc2cc(CCl)ccc2oc1=O`: the residual activity in experiment [1] was 8%; in experiment [2], 33%. Moreover, in experiment [3], the Ratio stood at 55.
`O=C(Oc1ccc(I)cc1)c1cc2cc(CCl)ccc2oc1=O`: the figures for the residual activity in experiment [1] and in experiment [2] were 99% and 80%, respectively.
For `O=C(Sc1cccc(Cl)c1)c1cc2cc(CCl)ccc2oc1=O`, the residual activity worked out at 107% in experiment [1] and 60% in experiment [2].
`O=C(Oc1cccc2ccccc12)c1cc2cc(CCl)ccc2oc1=O`: the residual activity in experiment [1] amounted to 115%; in experiment [2], 109%.
On to `O=C(Oc1cccc(Cl)c1)c1cc2cc(CCl)ccc2oc1=O`, for which the residual activity in experiment [1] was determined as 10%; in experiment [2], 29%. Moreover, the Ratio in experiment [3] is 25.
For the compound `O=C(Oc1c(Cl)cccc1Cl)c1cc2cc(CCl)ccc2oc1=O`, the residual activity in experiment [1] stood at 101%; in experiment [2] it was 109%.
The like results for `O=C(Oc1cccc([N+](=O)[O-])c1)c1cc2cc(CCl)ccc2oc1=O` were, in that order, 80% and 124%.
As for `O=C(Oc1cccnc1)c1cc2cc(CCl)ccc2oc1=O`, the figures for the residual activity in experiment [1] and in experiment [2] were 113% and 114%, respectively.
In the case of `O=C(Oc1cc(Cl)cc(Cl)c1)c1cc2cc(CCl)ccc2oc1=O`, the results for the residual activity in experiment [1] and in experiment [2] were 102% and 73%, respectively.
Consider `O=C(Oc1ccccc1I)c1cc2cc(CCl)ccc2oc1=O`, for which the residual activity is 59% in experiment [1] and 92% in experiment [2].
As to `O=C(Oc1cccc(Cl)c1Cl)c1cc2cc(CCl)ccc2oc1=O`, the residual activity in experiment [1] came to 100%; in experiment [2], 125%.
Consider `O=C(Oc1cccc2cccnc12)c1cc2cc(CCl)ccc2oc1=O`, for which the residual activity came to 107% in experiment [1] and 114% in experiment [2].
As for `Cc1ccccc1OC(=O)c1cc2cc(CCl)ccc2oc1=O`, the residual activity in experiment [1] turned out to be 79%; in experiment [2], 103%.
The like results for `O=C(Oc1cccc(Cl)c1)c1cc2ccccc2oc1=O` were, in that order, 107% and 77%.
In the case of `O=C(OCc1ccccc1)c1cc2cc(CCl)ccc2oc1=O`, the residual activity amounted to 95% in experiment [1] and 110% in experiment [2].
Consider `O=C(Oc1cccc(I)c1)c1cc2cc(CCl)ccc2oc1=O`, for which the residual activity in experiment [1] worked out at 27%; in experiment [2] it was 73%.
On to `O=C(Oc1ccccn1)c1cc2cc(CCl)ccc2oc1=O`, for which the residual activity in experiment [1] worked out at 100%; in experiment [2] it was 89%.
The like results for `CC(=O)OCc1ccc2oc(=O)c(C(=O)Oc3cccc(Cl)c3)cc2c1` were, in that order, 91% and 82%.
On to `O=C(Oc1cc(Cl)ccc1Cl)c1cc2cc(CCl)ccc2oc1=O`, for which, in experiment [2], the residual activity came out at 39%.
Regarding `O=C(Oc1ccc2ccccc2c1)c1cc2cc(CCl)ccc2oc1=O`, the residual activity in experiment [1] was determined as 109%; in experiment [2], 113%.
The like results for `Cc1ccc2oc(=O)c(C(=O)Oc3cccc(Cl)c3)cc2c1` were, in that order, 70% and 61%.

Values taken from ChEMBL document CHEMBL1141241, “3,6-disubstituted coumarins as mechanism-based inhibitors of thrombin and factor Xa” (J Med Chem, 2005).
